What follows are compounds tested against RIPK1 (recombinant GST-RIPK1 kinase domain, residues 1-327) (Homo sapiens (Human), UniProt Q13546) (assay: RIPK1-ADP-Glo Enzymatic Assay). Conditions: 25 nM GST-RIPK1, 300 μM ATP, 3 μM dephosphorylated-MBP; 30 minutes pre-incubation, 150 minutes reaction; ten-point titration.
Sequence of RIPK1 (recombinant GST-RIPK1 kinase domain, residues 1-327) (Q13546 1-327): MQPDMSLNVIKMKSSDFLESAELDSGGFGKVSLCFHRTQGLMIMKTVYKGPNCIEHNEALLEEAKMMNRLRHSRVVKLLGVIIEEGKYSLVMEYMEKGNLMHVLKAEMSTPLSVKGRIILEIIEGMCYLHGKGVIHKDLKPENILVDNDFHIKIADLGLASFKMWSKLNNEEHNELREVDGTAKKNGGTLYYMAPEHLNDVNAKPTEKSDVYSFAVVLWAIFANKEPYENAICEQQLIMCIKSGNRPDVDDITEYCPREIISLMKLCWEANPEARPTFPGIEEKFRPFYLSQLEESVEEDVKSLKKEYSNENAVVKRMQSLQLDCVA
Format: biochemical
Method: The enzymatic activity of RIPK1 is measured using an assay derived from ADP-Glo kit (™Promega), which provides a luminescent-based ADP detection system. Specifically, the ADP generated by RIPK1 kinase is proportionally detected as luminescent signals in a homogenous fashion. In this context, the assessment of the inhibitory effect of small molecules (EC50) is measured by the effectiveness of the compounds to inhibit the ATP to ADP conversion by RIPK1.
In this assay, the potency (EC50) of each compound was determined from a ten-point (1:3 serial dilution; top compound concentration of 100000 nM) titration curve using the following outlined procedure. To each well of a white ProxiPlus 384 well-plate, 30 nL of compound (1% DMSO in final assay volume of 3 μL) was dispensed, followed by the addition of 2 μL of 1× assay buffer (25 mM Hepes 7.3, 20 mM MgCl2, 50 mM NaCl, 1 mM DTT, 0.005% Tween20, and 0.02% BSA) containing 37.5 nM of GST-RIPK1 (recombinant GST-RIPK1 kinase domain (residues 1-327) enzyme produced from baculovirus-transfected Sf21 cells: MW=62 kDa). Plates were placed in an ambient temperature humidified chamber for a 30 minutes pre-incubation with compound. Subsequently, each reaction was initiated by the addition of 1 μL 1× assay buffer containing 900 μM ATP and 3 μM dephosphorylated-MBP substrate. The final reaction in each well of 3 μL consists of 25 nM of GST-RIPK1, 300 μM ATP, and 3 μM dephosphorylated-MBP. Kinase reactions were allowed to proceed for 150 minutes prior to adding ADP-Glo reagents per Promega's outlined kit protocol. Dose-response curves were generated by plotting percent effect (% product conversion; Y-axis) vs. Log10 compound concentrations (X-axis). EC50 values were calculated using a non-linear regression, four-parameters sigmoidal dose-response model.
In the case of `CC1(C(=O)N2C[C@@H]3C[C@H]2c2ccccc2O3)CC1(F)F` (mixture of isomers) [Compound 1-14, [(R and S)-2,2-difluoro-1-methylcyclopropyl]-[(2S,5S)-2,3-dihydro-2,5-methano-1,4-benzoxazepin-4(5H)-yl]methanone], the IC50 is reported as 313 nM.
For `CC1(C(=O)N2C[C@@H]3C[C@H]2c2ccccc2O3)CC1(Cl)Cl` (mixture of isomers) [Compound 1-20, [(R and S)-2,2-dichloro-1-methylcyclopropyl]-[(2S,5S)-2,3-dihydro-2,5-methano-1,4-benzoxazepin-4(5H)-yl]methanone], the IC50 was 62 nM.
In the case of `CC1(C)CCC1C(=O)N1C[C@@H]2C[C@H]1c1ccccc1O2` (mixture of isomers) [Compound 1-27, [(2S,5S)-2,3-dihydro-2,5-methano-1,4-benzoxazepin-4(5H)-yl]-[(R and S)-2,2-dimethylcyclobutyl] methanone], the IC50 is reported as 921 nM.
For `C[C@H]1CC[C@@](C)(C(=O)N2C[C@@H]3C[C@H]2c2ccccc2O3)C1(C)C` (racemic) [Compound 1-32, [(2S,5S)-2,3-dihydro-2,5-methano-1,4-benzoxazepin-4(5H)-yl][(1R,3S and 1S,3R)-1,2,2,3-tetramethylcyclopentyl] methanone], the IC50 was 391 nM.
With `O=C(C1CCCCC12CC2)N1C[C@@H]2C[C@H]1c1ccccc1O2` (mixture of isomers) [Compound 1-35, [(2S,5S)-2,3-dihydro-2,5-methano-1,4-benzoxazepin-4(5H)-yl]-[(R and S)-spiro[2.5]octan-4-yl]methanone] the IC50 was 220 nM.
In the case of `CC1(C(=O)N2C[C@@H]3C[C@H]2c2ccccc2O3)CCOC1` (mixture of isomers) [Compound 1-50, [(2S,5S)-2,3-dihydro-2,5-methano-1,4-benzoxazepin-4(5H)-yl]-[(R and S)-3-methyloxolan-3-yl]methanone], the IC50 is reported as 393 nM.
`CC(C)(C)C(=O)N1C2CCC1c1ccccc1OC2` (single isomer, unassigned) [Compound 3-1, 2,2-dimethyl-1-((3S,6R or 3R,6S)-3,4,5,6-tetrahydro-2H-3,6-epiminobenzo[b]oxocin-11-yl)propan-1-one] was tested, and the IC50 was 281 nM.
Work on `O=C(N1C[C@H]2Cc3ccccc3[C@@H]1C2)C12CCC(C(F)(F)F)(CC1)C2` (single isomer, unassigned) [Compound 3-4] yielded an IC50 of 267 nM.
`C[C@@]12C[C@@H](c3ccccc3O1)N(C(=O)C13CCC(CC1)C3)C2` (single isomer, unassigned) [Compound 3-7] gave an IC50 of 6580 nM.
In the case of `C[C@@]12C[C@@H](c3ccccc3O1)N(C(=O)C13CCC(F)(CC1)C3)C2` (single isomer, unassigned) [Compound 3-8], the IC50 is reported as 3980 nM.
Work on `C[C@@]12C[C@@H](c3ccccc3O1)N(C(=O)C13CCC(C(F)(F)F)(CC1)C3)C2` (single isomer, unassigned) [Compound 3-9] yielded an IC50 of 2410 nM.
`O=C(NCc1ccc(Cl)cc1)C(=O)N1CC2C[C@H]1c1ccccc1O2` (stereo in doubt) [Compound 1-56, N-[(4-chlorophenyl)methyl]-2-[(2R,5S)-2,3-dihydro-2,5-methano-1,4-benzoxazepin-4(5H)-yl]-2-oxoacetamide] gave an IC50 of 863 nM.
Compound `CC(C)(C)C(=O)N1C[C@@H]2C[C@H]1c1ccccc1O2` [Compound 1-1, 1-((2S,5S)-2,3-dihydro-2,5-methanobenzo[f][1,4]oxaze-pin-4(5H)-yl)-2,2-dimethylpropan-1-one] has an IC50 of 48 nM.
For `CC(C)(C(=O)N1C[C@@H]2C[C@H]1c1ccccc1O2)C(F)F` [Compound 1-2, 1-((2S,5S)-2,3-dihydro-2,5-methanobenzo[f][1,4]oxaze-pin-4(5H)-yl)-3,3-difluoro-2,2-dimethylpropan-1-one], the IC50 was 61 nM.
Work on `CC1(C(=O)N2C[C@@H]3C[C@H]2c2ccccc2O3)CCC1` [Compound 1-3, ((2S,5S)-2,3-dihydro-2,5-methanobenzo[f][1,4]oxaze-pin-4(5H)-yl)(1-methylcyclobutyl)methanone] yielded an IC50 of 97 nM.
`O=C(N1C[C@@H]2C[C@H]1c1ccccc1O2)C12CCC(CC1)C2` [Compound 1-4, bicyclo[2.2.1]heptan-1-yl((2S,5S)-2,3-dihydro-2,5-methanobenzo[f][1,4]oxaze-pin-4(5H)-yl)methanone] was tested, and the IC50 was 33 nM.

— US20240208986A1, “PHENYL AZEPINES AS RIPK1 INHIBITORS AND METHODS OF USE THEREOF” (Merck Sharp & Dohme LLC, priority 2021, published 2024)
